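The compound was tested at five concentrations on cells cultured in 96-well plates, with a 48-hour exposure period. At the GI50, growth is halved.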 Active and inactive are the calls of the source. Rule as the data show it: active = GI50 up to about 1.1 µM and inactive = higher.
Legend:
Assay in all cases: NCI anticancer screen, dose series, 48 h
K562 = test system: K562
HOP-92 = test system: HOP-92
SNB-19 = test system: SNB-19
M14 = test system: M14
SR = test system: SR
RXF 393 = test system: RXF 393
BT-549 = test system: BT-549
COLO 205 = test system: COLO 205
CAKI-1 = test system: CAKI-1
UACC-62 = test system: UACC-62
TK-10 = test system: TK-10
OVCAR-5 = test system: OVCAR-5
LOX IMVI = test system: LOX IMVI
UACC-257 = test system: UACC-257
IGROV-1 = test system: IGROV-1
MDA-MB-435 = test system: MDA-MB-435
MOLT-4 = test system: MOLT-4
A549 = test system: A549
OVCAR-3 = test system: OVCAR-3
EKVX = test system: EKVX
NCI-H460 = test system: NCI-H460
HL-60 = test system: HL-60
NCI/ADR-RES = test system: NCI/ADR-RES
HCT-15 = test system: HCT-15
SN12C = test system: SN12C
SK-MEL-2 = test system: SK-MEL-2
HT-29 = test system: HT-29
SK-MEL-5 = test system: SK-MEL-5
SF-268 = test system: SF-268
CCRF-CEM = test system: CCRF-CEM
HCC 2998 = test system: HCC 2998
SW-620 = test system: SW-620
OVCAR-4 = test system: OVCAR-4
MCF7 = test system: MCF7
NCI-H522 = test system: NCI-H522
U-251 = test system: U-251
A498 = test system: A498
NCI-H226 = test system: NCI-H226
OVCAR-8 = test system: OVCAR-8
HCT-116 = test system: HCT-116
RPMI-8226 = test system: RPMI-8226
ACHN = test system: ACHN
SK-MEL-28 = test system: SK-MEL-28
HOP-62 = test system: HOP-62
KM12 = test system: KM12
PC-3 = test system: PC-3
UO-31 = test system: UO-31
NCI-H23 = test system: NCI-H23
MDA-N = test system: MDA-N
Malme-3M = test system: Malme-3M
T47D = test system: T47D
Hs-578T = test system: Hs-578T
SK-OV-3 = test system: SK-OV-3
786-0 = test system: 786-0
SNB-75 = test system: SNB-75
SF-295 = test system: SF-295
MDA-MB-231 = test system: MDA-MB-231
DU-145 = test system: DU-145
SF-539 = test system: SF-539

**Q.** What does the source list for `O=C(Nc1ccccn1)c1cc2c(cc1Cl)Sc1nccn1S2(=O)=O`?
**A.** GI50 (K562): 32.3 µM (inactive); GI50 (HOP-92): 51.9 µM (inactive); GI50 (SNB-19): 56.1 µM (inactive); GI50 (M14): 48.9 µM (inactive); GI50 (SR): 29.4 µM (inactive); GI50 (RXF 393): 25.5 µM (inactive); GI50 (BT-549): 71.3 µM (inactive); GI50 (COLO 205): 33.5 µM (inactive); GI50 (CAKI-1): 36.5 µM (inactive); GI50 (UACC-62): 42 µM (inactive); GI50 (TK-10): 33.4 µM (inactive); GI50 (OVCAR-5): > 100 µM (inactive); GI50 (LOX IMVI): 26.8 µM (inactive); GI50 (UACC-257): 33.7 µM (inactive); GI50 (IGROV-1): 23.8 µM (inactive); GI50 (MDA-MB-435): 27.9 µM (inactive); GI50 (MOLT-4): 31.3 µM (inactive); GI50 (A549): 34.8 µM (inactive); GI50 (OVCAR-3): 26.7 µM (inactive); GI50 (EKVX): 38.2 µM (inactive); GI50 (NCI-H460): 30.1 µM (inactive); GI50 (HL-60): 23.9 µM (inactive); GI50 (NCI/ADR-RES): 31 µM (inactive); GI50 (HCT-15): 30.7 µM; GI50 (SN12C): 36.6 µM (inactive); GI50 (SK-MEL-2): 20 µM (inactive); GI50 (HT-29): 31.1 µM (inactive); GI50 (SK-MEL-5): 25.6 µM (inactive); GI50 (SF-268): 37.8 µM (inactive); GI50 (CCRF-CEM): 22.5 µM (inactive); GI50 (HCC 2998): 16.1 µM (inactive); GI50 (SW-620): 45 µM (inactive); GI50 (OVCAR-4): 33 µM (inactive); GI50 (MCF7): 41.8 µM (inactive); GI50 (NCI-H522): 39.1 µM (inactive); GI50 (U-251): 44.4 µM (inactive); GI50 (A498): 45 µM (inactive); GI50 (NCI-H226): 24.2 µM (inactive); GI50 (OVCAR-8): 37.8 µM (inactive); GI50 (HCT-116): 28.4 µM (inactive); GI50 (RPMI-8226): 29.7 µM (inactive); GI50 (ACHN): 32.1 µM (inactive); GI50 (SK-MEL-28): 44.3 µM (inactive); GI50 (HOP-62): 39.6 µM (inactive); GI50 (KM12): 33.6 µM (inactive); GI50 (PC-3): 44.8 µM (inactive); GI50 (UO-31): 27 µM (inactive); GI50 (NCI-H23): 27.4 µM (inactive); GI50 (MDA-N): 36.3 µM (inactive); GI50 (Malme-3M): 63 µM (inactive); GI50 (T47D): 20.7 µM (inactive); GI50 (Hs-578T): > 100 µM (inactive); GI50 (SK-OV-3): 38.1 µM (inactive); GI50 (786-0): 35.1 µM (inactive); GI50 (SNB-75): 33.2 µM (inactive); GI50 (SF-295): 36.6 µM (inactive); GI50 (MDA-MB-231): 21.1 µM (inactive)

**Q.** How did the GI50 (K562) turn out when `CC[n+]1c(-c2ccccc2)c2cc(N)ccc2c2ccc(N)cc21` [HOMIDIUM BROMIDE] was run?
**A.** 2.96 µM (inactive)

**Q.** And the GI50 (HOP-92)?
**A.** 2.24 µM (inactive)

**Q.** What about the GI50 (M14) of the same compound?
**A.** 13.6 µM (inactive)

**Q.** And the GI50 (RXF 393)?
**A.** 5.68 µM (inactive)

**Q.** And the GI50 (BT-549)?
**A.** 1.14 µM (inactive)

**Q.** What about the GI50 (COLO 205) of the same compound?
**A.** 1.68 µM (inactive)

**Q.** And the GI50 (CAKI-1)?
**A.** 16.9 µM (inactive)

**Q.** And the GI50 (TK-10)?
**A.** 8.36 µM (inactive)

**Q.** What about the GI50 (OVCAR-5) of the same compound?
**A.** 15.4 µM (inactive)

**Q.** What about the GI50 (UACC-257) of the same compound?
**A.** 2.01 µM (inactive)

**Q.** What about the GI50 (MDA-MB-435) of the same compound?
**A.** 3.5 µM (inactive)

**Q.** And the GI50 (MOLT-4)?
**A.** 2.36 µM (inactive)

**Q.** And the GI50 (A549)?
**A.** 11.9 µM (inactive)

**Q.** And the GI50 (OVCAR-3)?
**A.** 3.07 µM (inactive)

**Q.** And the GI50 (NCI-H460)?
**A.** 5.06 µM (inactive)

**Q.** What about the GI50 (HL-60) of the same compound?
**A.** 5.97 µM (inactive)

**Q.** What about the GI50 (NCI/ADR-RES) of the same compound?
**A.** > 100 µM (inactive)

**Q.** What about the GI50 (HCT-15) of the same compound?
**A.** 55.5 µM

**Q.** And the GI50 (SN12C)?
**A.** 3.24 µM (inactive)

**Q.** And the GI50 (SK-MEL-2)?
**A.** 2.08 µM (inactive)

**Q.** What about the GI50 (HT-29) of the same compound?
**A.** 3.67 µM (inactive)

**Q.** And the GI50 (SK-MEL-5)?
**A.** 1.2 µM (inactive)

**Q.** And the GI50 (HCC 2998)?
**A.** 4.79 µM (inactive)

**Q.** What about the GI50 (SW-620) of the same compound?
**A.** 3.67 µM (inactive)

**Q.** What about the GI50 (OVCAR-4) of the same compound?
**A.** 4.44 µM (inactive)

**Q.** What about the GI50 (MCF7) of the same compound?
**A.** 2 µM (inactive)

**Q.** And the GI50 (U-251)?
**A.** 4.38 µM (inactive)

**Q.** What about the GI50 (HCT-116) of the same compound?
**A.** 3.62 µM (inactive)

**Q.** And the GI50 (DU-145)?
**A.** 7.57 µM (inactive)

**Q.** What about the GI50 (ACHN) of the same compound?
**A.** 19 µM (inactive)

**Q.** And the GI50 (SK-MEL-28)?
**A.** 2.05 µM (inactive)

**Q.** What about the GI50 (KM12) of the same compound?
**A.** 2.49 µM (inactive)

**Q.** What about the GI50 (PC-3) of the same compound?
**A.** 5.06 µM (inactive)

**Q.** What about the GI50 (NCI-H23) of the same compound?
**A.** 1.53 µM (inactive)

**Q.** And the GI50 (MDA-N)?
**A.** 4.2 µM (inactive)

**Q.** And the GI50 (T47D)?
**A.** 1.93 µM (inactive)

**Q.** And the GI50 (Hs-578T)?
**A.** < 0.01 µM (active)

**Q.** What about the GI50 (SK-OV-3) of the same compound?
**A.** 3.52 µM (inactive)

**Q.** And the GI50 (SNB-75)?
**A.** 0.0372 µM (active)

**Q.** And the GI50 (SF-295)?
**A.** 2.82 µM (inactive)

**Q.** And the GI50 (MDA-MB-231)?
**A.** 8.55 µM (inactive)

**Q.** And the GI50 (SF-539)?
**A.** 1.53 µM (inactive)

Reference: ChEMBL document CHEMBL1201862, “PubChem BioAssay data set” (2004)
